Measured values as given in ChEMBL document CHEMBL1201862, “PubChem BioAssay data set” (2004).
Active and inactive are the calls of the source.

Assays:
[1] = biological target: T1, Sentrin-specific protease 6 (Homo sapiens, UniProt Q9GZR1); format: functional;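 note: Luminescence-based dose-response confirmatory assay of SENP6 inhibition, following up an ultra-high-throughput screen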
T1 sequence (Q9GZR1 whole entry): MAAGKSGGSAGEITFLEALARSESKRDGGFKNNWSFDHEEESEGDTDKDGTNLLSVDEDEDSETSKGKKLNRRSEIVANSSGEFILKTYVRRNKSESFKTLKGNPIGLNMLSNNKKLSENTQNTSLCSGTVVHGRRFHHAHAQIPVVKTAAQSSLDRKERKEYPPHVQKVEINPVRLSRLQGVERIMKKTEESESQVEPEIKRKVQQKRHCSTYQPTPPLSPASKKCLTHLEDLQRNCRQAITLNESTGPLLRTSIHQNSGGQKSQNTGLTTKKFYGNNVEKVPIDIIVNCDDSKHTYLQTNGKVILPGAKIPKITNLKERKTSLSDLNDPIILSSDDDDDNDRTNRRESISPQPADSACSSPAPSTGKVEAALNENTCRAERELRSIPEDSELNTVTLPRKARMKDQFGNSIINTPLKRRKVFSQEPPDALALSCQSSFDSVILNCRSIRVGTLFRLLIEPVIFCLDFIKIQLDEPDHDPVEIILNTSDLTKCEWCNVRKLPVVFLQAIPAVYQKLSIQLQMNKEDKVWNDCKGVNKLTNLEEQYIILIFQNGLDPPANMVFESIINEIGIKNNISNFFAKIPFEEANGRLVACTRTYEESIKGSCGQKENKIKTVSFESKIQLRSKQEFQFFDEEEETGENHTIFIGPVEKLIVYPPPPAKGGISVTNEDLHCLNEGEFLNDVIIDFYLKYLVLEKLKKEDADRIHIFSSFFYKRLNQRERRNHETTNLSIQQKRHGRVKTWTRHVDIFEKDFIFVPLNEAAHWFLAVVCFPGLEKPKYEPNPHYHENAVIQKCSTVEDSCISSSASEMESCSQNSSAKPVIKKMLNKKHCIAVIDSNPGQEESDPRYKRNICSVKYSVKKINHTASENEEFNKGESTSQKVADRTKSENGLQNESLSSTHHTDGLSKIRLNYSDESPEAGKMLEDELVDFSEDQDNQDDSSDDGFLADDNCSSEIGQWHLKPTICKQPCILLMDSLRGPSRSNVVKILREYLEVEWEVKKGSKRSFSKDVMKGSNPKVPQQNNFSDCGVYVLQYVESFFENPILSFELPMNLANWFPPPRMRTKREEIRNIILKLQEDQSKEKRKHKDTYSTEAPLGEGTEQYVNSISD

[2] = biological target: Homeodomain-interacting protein kinase 2 (Homo sapiens, UniProt Q9H2X6); format: functional;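 note: measured within a kinome-wide kinase profiling panel, HIPK2 being one panel member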
[3] = biological target: Maternal embryonic leucine zipper kinase (Homo sapiens, UniProt Q14680); format: functional
Chain of Maternal embryonic leucine zipper kinase (Q14680 whole entry): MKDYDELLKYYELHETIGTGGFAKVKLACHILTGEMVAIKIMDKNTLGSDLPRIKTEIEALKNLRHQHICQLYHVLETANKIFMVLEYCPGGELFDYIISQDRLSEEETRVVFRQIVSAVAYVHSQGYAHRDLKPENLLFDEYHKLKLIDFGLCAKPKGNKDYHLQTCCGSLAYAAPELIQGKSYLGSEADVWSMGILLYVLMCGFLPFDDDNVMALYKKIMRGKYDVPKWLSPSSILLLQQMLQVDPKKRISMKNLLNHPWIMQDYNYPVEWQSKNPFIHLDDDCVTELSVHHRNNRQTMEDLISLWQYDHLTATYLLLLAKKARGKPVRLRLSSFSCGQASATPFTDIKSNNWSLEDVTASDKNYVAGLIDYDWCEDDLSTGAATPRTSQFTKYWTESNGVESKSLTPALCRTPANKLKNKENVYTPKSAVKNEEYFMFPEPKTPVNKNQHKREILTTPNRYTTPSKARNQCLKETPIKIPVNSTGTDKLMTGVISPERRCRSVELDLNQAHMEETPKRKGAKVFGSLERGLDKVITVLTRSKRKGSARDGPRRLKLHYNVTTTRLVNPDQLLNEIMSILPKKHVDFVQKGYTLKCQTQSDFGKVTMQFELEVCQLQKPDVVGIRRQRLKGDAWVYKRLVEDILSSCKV

[4] = biological target: Mitogen-activated protein kinase kinase kinase kinase 2 (Homo sapiens, UniProt Q12851); format: functional;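 note: measured as one member of a kinome-wide kinase panel, with MAP4K2 as the panel entry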
Chain of Mitogen-activated protein kinase kinase kinase kinase 2 (Q12851 whole entry): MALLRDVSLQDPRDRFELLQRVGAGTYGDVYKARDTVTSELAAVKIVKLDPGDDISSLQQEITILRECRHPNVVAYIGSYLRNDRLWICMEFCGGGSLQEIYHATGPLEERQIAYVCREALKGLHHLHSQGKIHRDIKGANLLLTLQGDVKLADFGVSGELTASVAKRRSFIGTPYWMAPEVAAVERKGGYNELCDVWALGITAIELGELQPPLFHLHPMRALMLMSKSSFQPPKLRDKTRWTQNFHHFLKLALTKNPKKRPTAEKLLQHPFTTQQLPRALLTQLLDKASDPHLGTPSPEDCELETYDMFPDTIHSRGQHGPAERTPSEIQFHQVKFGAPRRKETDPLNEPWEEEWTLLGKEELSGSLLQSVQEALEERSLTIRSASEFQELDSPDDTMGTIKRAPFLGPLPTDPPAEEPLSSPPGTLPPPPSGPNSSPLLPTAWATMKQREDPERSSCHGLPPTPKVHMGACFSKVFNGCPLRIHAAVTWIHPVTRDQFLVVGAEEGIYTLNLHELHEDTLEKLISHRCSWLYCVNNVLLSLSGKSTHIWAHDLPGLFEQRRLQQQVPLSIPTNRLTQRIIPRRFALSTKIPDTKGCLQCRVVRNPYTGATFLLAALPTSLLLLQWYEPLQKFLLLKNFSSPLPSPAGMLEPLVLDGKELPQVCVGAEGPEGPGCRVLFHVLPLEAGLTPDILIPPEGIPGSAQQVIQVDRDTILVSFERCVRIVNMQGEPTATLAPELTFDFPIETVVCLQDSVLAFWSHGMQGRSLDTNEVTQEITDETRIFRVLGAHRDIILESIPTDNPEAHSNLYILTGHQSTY

[5] = biological target: Non-receptor tyrosine-protein kinase TYK2 (Homo sapiens, UniProt P29597); format: functional
Chain of Non-receptor tyrosine-protein kinase TYK2 (P29597 whole entry): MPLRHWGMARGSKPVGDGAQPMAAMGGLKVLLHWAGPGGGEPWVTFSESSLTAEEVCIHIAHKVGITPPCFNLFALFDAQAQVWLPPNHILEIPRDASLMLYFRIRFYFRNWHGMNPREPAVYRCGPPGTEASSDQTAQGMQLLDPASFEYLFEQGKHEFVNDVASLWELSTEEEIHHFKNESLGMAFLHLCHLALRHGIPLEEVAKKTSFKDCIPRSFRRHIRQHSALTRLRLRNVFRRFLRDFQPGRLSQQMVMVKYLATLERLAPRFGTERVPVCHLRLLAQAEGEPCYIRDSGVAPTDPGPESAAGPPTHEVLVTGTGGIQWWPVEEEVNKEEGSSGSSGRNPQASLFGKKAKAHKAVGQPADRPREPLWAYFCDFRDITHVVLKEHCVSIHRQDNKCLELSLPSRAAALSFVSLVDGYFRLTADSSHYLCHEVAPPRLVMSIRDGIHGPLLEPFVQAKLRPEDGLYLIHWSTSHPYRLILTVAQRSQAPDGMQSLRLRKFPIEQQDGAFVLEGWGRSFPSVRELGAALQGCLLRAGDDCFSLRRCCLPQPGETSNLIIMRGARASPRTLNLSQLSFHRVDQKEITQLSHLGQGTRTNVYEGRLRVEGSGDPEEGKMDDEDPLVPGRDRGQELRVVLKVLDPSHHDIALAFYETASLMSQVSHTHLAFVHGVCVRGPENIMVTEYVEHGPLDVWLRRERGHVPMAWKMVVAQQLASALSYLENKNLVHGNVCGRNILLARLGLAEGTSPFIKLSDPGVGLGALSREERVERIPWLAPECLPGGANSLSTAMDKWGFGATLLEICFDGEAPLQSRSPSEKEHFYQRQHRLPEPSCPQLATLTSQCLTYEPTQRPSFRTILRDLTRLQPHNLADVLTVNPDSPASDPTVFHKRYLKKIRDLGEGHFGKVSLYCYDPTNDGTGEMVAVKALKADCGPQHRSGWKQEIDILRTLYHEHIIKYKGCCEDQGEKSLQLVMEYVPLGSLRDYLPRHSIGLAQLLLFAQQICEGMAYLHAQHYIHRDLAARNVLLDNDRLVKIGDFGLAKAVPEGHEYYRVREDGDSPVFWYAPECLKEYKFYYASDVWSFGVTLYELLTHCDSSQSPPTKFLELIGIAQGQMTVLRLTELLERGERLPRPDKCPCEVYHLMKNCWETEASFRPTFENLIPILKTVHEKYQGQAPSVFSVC

[6] = biological target: MAP kinase-interacting serine/threonine-protein kinase 2 (Homo sapiens, UniProt Q9HBH9); format: functional
[7] = biological target: Tyrosine-protein kinase Blk (Homo sapiens, UniProt P51451); format: functional;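 note: obtained as one member of a kinome-wide kinase assay panel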
[8] = biological target: Casein kinase I isoform gamma-1 (Homo sapiens, UniProt Q9HCP0); format: functional;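 note: measured as the CSNK1G1 member of a kinome profiling panel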
[9] = biological target: Protein-tyrosine kinase 2-beta (Homo sapiens, UniProt Q14289); format: functional
[10] = biological target: Serine/threonine-protein kinase D2 (Homo sapiens, UniProt Q9BZL6); format: functional;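 note: measured against PRKD2 as one member of a kinome-wide kinase profiling panel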
Chain of Serine/threonine-protein kinase D2 (Q9BZL6 whole entry): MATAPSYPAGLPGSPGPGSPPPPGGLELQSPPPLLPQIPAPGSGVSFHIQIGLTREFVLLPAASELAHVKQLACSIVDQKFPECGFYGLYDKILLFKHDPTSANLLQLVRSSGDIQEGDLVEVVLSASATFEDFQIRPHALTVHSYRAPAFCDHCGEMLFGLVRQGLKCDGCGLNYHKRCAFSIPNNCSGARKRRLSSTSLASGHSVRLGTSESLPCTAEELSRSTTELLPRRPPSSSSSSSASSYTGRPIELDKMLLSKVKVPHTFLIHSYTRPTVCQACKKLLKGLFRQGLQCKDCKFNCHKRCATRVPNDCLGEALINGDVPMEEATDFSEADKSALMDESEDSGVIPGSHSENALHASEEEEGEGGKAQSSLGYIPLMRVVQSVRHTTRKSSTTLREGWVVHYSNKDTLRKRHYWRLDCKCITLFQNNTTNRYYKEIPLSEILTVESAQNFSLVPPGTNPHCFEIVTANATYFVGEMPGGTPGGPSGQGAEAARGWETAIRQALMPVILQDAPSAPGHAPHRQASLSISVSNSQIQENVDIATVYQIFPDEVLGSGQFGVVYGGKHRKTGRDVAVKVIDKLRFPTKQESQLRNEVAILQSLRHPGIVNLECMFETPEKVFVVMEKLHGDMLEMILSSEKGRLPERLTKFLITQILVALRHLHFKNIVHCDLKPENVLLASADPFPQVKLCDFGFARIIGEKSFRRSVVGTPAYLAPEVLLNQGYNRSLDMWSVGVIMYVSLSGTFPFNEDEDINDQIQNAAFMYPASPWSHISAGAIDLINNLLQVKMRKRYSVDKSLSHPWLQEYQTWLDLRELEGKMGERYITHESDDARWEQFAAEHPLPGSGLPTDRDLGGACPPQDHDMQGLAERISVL

[11] = biological target: Serine/threonine-protein kinase Chk2 (Homo sapiens, UniProt O96017); format: functional;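 note: CHEK2 entry within a kinome-wide screening panel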
[12] = biological target: Serine/threonine-protein kinase D3 (Homo sapiens, UniProt O94806); format: functional;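 note: determined within a kinase panel screen, with PRKCN as the panel member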
[13] = biological target: Mitogen-activated protein kinase 1 (Homo sapiens, UniProt P28482); format: functional
Chain of Mitogen-activated protein kinase 1 (P28482 whole entry): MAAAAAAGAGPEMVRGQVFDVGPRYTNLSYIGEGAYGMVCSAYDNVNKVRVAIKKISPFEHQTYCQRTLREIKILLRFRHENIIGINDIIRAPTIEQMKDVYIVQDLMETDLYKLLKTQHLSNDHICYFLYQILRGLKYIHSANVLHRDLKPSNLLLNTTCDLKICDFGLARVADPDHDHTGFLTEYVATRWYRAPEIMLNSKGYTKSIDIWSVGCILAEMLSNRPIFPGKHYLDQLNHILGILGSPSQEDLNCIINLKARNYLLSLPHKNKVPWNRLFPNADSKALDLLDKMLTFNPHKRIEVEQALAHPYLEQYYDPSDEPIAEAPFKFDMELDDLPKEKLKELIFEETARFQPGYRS

[14] = biological target: Inhibitor of nuclear factor kappa-B kinase subunit alpha (Homo sapiens, UniProt O15111); format: functional
[15] = biological target: Interleukin-1 receptor-associated kinase 1 (Homo sapiens, UniProt P51617); format: functional;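 note: IRAK1 tested as one member of a kinome panel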
[16] = biological target: Ribosomal protein S6 kinase alpha-3 (Homo sapiens, UniProt P51812); format: functional;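 note: measured within a kinome-wide profiling panel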
Chain of Ribosomal protein S6 kinase alpha-3 (P51812 whole entry): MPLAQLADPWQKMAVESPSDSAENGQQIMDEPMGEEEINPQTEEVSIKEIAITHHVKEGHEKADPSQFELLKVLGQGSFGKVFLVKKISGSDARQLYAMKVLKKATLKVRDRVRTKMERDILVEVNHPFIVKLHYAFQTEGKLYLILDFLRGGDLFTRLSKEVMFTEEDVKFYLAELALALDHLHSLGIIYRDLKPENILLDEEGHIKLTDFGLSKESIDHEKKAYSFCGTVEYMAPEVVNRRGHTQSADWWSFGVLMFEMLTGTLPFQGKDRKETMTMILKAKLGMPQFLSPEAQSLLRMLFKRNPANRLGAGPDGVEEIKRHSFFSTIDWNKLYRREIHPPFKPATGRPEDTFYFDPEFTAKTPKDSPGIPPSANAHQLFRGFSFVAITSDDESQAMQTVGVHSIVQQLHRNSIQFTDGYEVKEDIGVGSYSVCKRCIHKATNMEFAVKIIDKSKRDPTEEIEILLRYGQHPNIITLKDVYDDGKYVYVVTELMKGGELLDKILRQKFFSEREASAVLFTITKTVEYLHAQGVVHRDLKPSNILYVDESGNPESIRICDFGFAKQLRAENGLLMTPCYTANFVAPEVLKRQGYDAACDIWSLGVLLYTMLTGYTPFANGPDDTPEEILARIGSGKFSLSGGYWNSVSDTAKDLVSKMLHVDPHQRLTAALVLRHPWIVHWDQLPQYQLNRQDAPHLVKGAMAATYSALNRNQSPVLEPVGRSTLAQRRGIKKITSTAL

[17] = biological target: T2, Dual specificity protein phosphatase 3 (Homo sapiens, UniProt P51452); experiment: VHR1 phosphatase inhibitors, primary screen, biochemical, absorbance, uHTS (AID 1654)
T2 sequence (P51452 whole entry): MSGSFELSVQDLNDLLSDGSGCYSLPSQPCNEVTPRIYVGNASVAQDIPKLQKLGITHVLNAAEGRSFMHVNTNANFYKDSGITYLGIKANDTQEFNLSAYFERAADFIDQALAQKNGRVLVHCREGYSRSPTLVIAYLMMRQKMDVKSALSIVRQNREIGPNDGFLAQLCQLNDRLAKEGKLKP

[18] = biological target: T2, Dual specificity protein phosphatase 3; experiment: VHR1 phosphatase inhibitors, biochemical (AID 1878)
[19] = biological target: T3, DNA repair and recombination protein RAD54-like (Homo sapiens, UniProt Q92698); experiment: inhibitors of human RAD54 branch migration, confirmation, biochemical, fluorescence, cherry-picked samples, dose series (AID 651657); format: functional
T3 sequence (Q92698 whole entry): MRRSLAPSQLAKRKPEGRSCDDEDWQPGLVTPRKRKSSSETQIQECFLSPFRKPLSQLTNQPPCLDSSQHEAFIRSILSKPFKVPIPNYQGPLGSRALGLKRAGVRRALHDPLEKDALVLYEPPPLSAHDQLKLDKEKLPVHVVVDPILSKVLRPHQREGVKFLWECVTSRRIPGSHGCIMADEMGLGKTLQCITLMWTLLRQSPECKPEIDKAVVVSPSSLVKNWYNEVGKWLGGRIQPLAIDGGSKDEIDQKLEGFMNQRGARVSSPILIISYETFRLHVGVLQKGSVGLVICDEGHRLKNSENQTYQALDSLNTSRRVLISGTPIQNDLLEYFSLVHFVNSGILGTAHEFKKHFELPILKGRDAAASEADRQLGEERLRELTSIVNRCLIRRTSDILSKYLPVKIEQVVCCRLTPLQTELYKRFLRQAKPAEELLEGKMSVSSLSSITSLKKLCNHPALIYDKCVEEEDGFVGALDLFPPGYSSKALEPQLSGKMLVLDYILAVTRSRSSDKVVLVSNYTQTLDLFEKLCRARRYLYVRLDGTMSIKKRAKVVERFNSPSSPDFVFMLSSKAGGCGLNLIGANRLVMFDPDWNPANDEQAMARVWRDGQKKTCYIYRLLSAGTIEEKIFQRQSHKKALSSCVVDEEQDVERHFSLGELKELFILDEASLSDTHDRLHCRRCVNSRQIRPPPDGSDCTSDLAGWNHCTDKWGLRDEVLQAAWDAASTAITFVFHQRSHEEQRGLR

[20] = biological target: Caspase-8 (Homo sapiens, UniProt Q14790); experiment: caspase-8 inhibition counter-screen, dose response, selectivity assay for caspase-6 inhibitor project, biochemical, Z-IETD-R110 fluorescence, cherry-picked samples (AID 743294)

**Q.** For `CC(=O)c1ccc(NC2=C(N3CCOCC3)C(=O)c3ccccc3C2=O)cc1`, which IC50 [1] is on record?
**A.** Its IC50 is 11.6 µM (active).

**Q.** What does the source list for `COc1cc2ncn(-c3cc(OCc4ccccc4C(F)(F)F)c(C(N)=O)s3)c2cc1OC` [GW843682X]?
**A.** Ki [2]: > 3.16 µM (inactive); Ki [3]: 0.158 µM (active); Ki [4]: > 6.31 µM (inactive); Ki [5]: > 2 µM (inactive); Ki [6]: > 10 µM (inactive); Ki [7]: > 1.58 µM (inactive); Ki [8]: > 6.31 µM (inactive); Ki [9]: 0.158 µM (active); Ki [10]: > 10 µM (inactive); Ki [11]: > 5.01 µM (inactive); Ki [12]: > 10 µM (inactive); Ki [13]: > 7.94 µM (inactive); Ki [14]: > 3.98 µM (inactive); Ki [15]: > 7.94 µM (inactive); Ki [16]: 7.94 µM (active)

**Q.** With `CCCc1nc2c(=O)n(C)c(=O)nc-2n(C)n1` as the compound, how does the IC50 [17] read?
**A.** Its IC50 is < 0.98 µM (inactive).

**Q.** And the IC50 [18]?
**A.** Its IC50 is 5.55 µM (active).

**Q.** What about the AC50 [19] of the same compound?
**A.** Its AC50 is 1.13 µM (active).

**Q.** What about the AC50 [20] of the same compound?
**A.** Its AC50 is 0.31 µM (active).
